Source: ChEMBL document CHEMBL3507680, “University of Dundee, Gates Library screen for HepG2 cell viability”

Assay: Human HepG2 cell viability assay in 384 well format
Format: toxicity, cell-based
Design: dose 125 nL, time 70.5 hour; cytotoxicity at 70.5 h: concentration not given beside the values
Conditions: HepG2 cells, read-out: Inhibition

Compound | cytotoxicity at 70.5 h [%]
NS(=O)(=O)c1cc(C(=O)N2CCCC(n3ccnc3)C2)cs1 (configuration not stated) | -3.09
Cc1ccc(CNc2cc(N3CCCC3CO)ncn2)s1 (configuration not stated) | -0.592
Cc1nc(C)n(C2CCCN(C(=O)Cc3cn4ccccc4n3)C2)n1 (configuration not stated) | 1.25
Cc1c(C(=O)N2CCCC(n3cncn3)C2)cnn1C (configuration not stated) | 3.32
CC(C)(C)c1n[nH]c(C2CN(CCc3cccs3)CCO2)n1 (configuration not stated) | 3.37
CC(=O)N(Cc1noc(C)n1)C1CCN(Cc2c(C)noc2C)C1 (configuration not stated) | -0.736
CCc1nccn1C1CCCN(C(=O)Cc2cn3ccsc3n2)C1 (configuration not stated) | -11.7
CN(C)CCC1CCN(Cc2ccn(C)c(=O)c2)CC1 | -4.16
O=C(NCc1csc(Br)c1)c1cnccn1 | -13.5
CNS(=O)(=O)c1cccc(CNC(=O)c2cc(C)no2)c1 | 15.5
CCc1ccc(C(=O)NCc2cccc(S(=O)(=O)NC)c2)o1 | -0.952
Cc1ccc(F)c(S(=O)(=O)NCc2cccc(C(=O)N3CCCC3)c2)c1 | 16.3
Cn1ccc(CN2CCC(Cc3ccccc3)CC2)cc1=O | 0.151
Cn1ccc(CN2CCC(CC(=O)N3CCCC3)CC2)cc1=O | -6.85
Cc1cnn(C2CCCN(C(=O)CCCOc3ccccc3F)C2)c1 (configuration not stated) | -5.78
Cc1cnn(C2CCCN(C(=O)c3cn(-c4ccccc4)nn3)C2)c1 (configuration not stated) | -6.41
COc1ccc(F)cc1CN1CCCC1Cn1nc(C)nc1C (configuration not stated) | -1.67
Cc1cnn(CC2CCCN2C(=O)c2ccc3[nH]c(=O)[nH]c3c2)c1 (configuration not stated) | -1.55
Cc1cc(C)n(CC2CCCN2C(=O)c2cnc3n[nH]c(C)c3c2)n1 (configuration not stated) | 1.22
Cc1nc(C2CCCN(C(=O)c3cnn(C4CCCCC4)c3)C2)no1 (configuration not stated) | -1.22
Cc1ccc(N2CCCC(NCc3cc(C)on3)C2)nn1 (configuration not stated) | -3.47
O=C(COC1CCCCC1)N1CCCC(n2ccnc2)C1 (configuration not stated) | -6.58
O=C(CCOc1cccc(F)c1)N1CCCC(n2cccn2)C1 (configuration not stated) | -2.03
O=C(COc1ccccc1Cl)N1CCCC(n2ccnc2)C1 (configuration not stated) | -2.83
CSCCC(=O)N1CCCC(n2ccnc2)C1 (configuration not stated) | -6.36
O=C(COCCOc1ccccc1)N1CCCC(n2ccnc2)C1 (configuration not stated) | -4.49

Compound | cytotoxicity at 70.5 h [%]
Cc1cnn(CC2CCCCN2Cc2nccn2CC(F)(F)F)c1 (configuration not stated) | 4.47
CCc1n[nH]c(C2CN(C(=O)c3ccnc(N(C)C)c3)CCO2)n1 (configuration not stated) | 20.1
CCc1nnc(CN2CCC(N3CCN(CC)C3=O)CC2)o1 | -16.5
Cc1nc(CN2CCN(C(=O)c3sccc3C)CC2)cs1 | -11.5
COc1ccc(CCC(=O)N2CCCCC2Cn2cccn2)cc1F (configuration not stated) | -7.2
CCCn1[nH]cc/c1=N\C(=O)CN1CCc2cnc(C(C)C)nc2C1 | -3.5
CC(Cn1cccn1)NC(=O)NCc1ccc(S(C)(=O)=O)cc1 (configuration not stated) | 11.7
COc1ccc(C(=O)N(C)Cc2nnc3ccccn23)c(OC)c1OC | -11.4
Cn1ccnc1CN1CCN(CC(O)c2ccc(F)cc2)CC1 (configuration not stated) | -3.86
Nc1nc(CN2CCOC(Cn3cccn3)C2)nc2ccccc12 (configuration not stated) | -11.8
CC(=O)Nc1nc(CN2CCOC(Cn3cccn3)C2)cs1 (configuration not stated) | -5.08
Cc1ccc(C(=O)NC2CCN(C(=O)NCc3ccccn3)CC2)o1 | -8.93
CCN1CCN(C2CCN(Cc3nnc(C4CC4)o3)CC2)C1=O | 12.8
Cc1cnn(CC2CCCN2C(=O)c2n[nH]c(=O)c3ccccc23)c1 (configuration not stated) | -7.98
O=C(CCc1ccc(F)c(F)c1)N1CCCCC1Cn1cccn1 (configuration not stated) | -7.69
O=C(CCc1ccsc1)N1CCCCC1Cn1cccn1 (configuration not stated) | -9.96
Cc1ccc(OCCC(=O)N2CCN(c3cnccn3)CC2)cc1C | -4.94
O=C(CCOc1ccc(Cl)cc1)N1CCN(c2cnccn2)CC1 | -11.5
CC(C)c1cc(NC(=O)CN2CCC(N3CCCCC3)CC2)on1 | -1.37
CCOc1ncccc1NC(=O)NC1CCCN(c2ncccn2)C1 (configuration not stated) | -2.86
CCn1cc(NC(=O)NCc2ccc(CN3CCOCC3)cc2)cn1 | -6.5
OC(COc1ccc(F)cc1)CN1CCC(Cn2cccn2)CC1 (configuration not stated) | 10.3
CN(Cc1ccsc1)C(=O)CN1CCOC(Cn2cccn2)C1 (configuration not stated) | 29
NC(=O)c1cc(NC(=O)NCCc2cc(F)cc(F)c2)ccc1F | 10.2
Cc1ccc(-c2cc(CN3CCCC(Cn4cncn4)C3)on2)cc1 (configuration not stated) | 27.6
O=S(=O)(CCCN1CCCC1Cn1cccn1)c1ccccc1 (configuration not stated) | -11.1

Compound | cytotoxicity at 70.5 h [%]
CCn1cc(NC(=O)CCc2ccc3c(c2)OCCCO3)cn1 | 10.1
CCS(=O)(=O)CCN1CCC(N(C)Cc2noc(C(C)C)n2)C1 (configuration not stated) | -5.52
COc1ccccc1OCC(=O)NS(=O)(=O)c1ccc(C)s1 | -4.78
Cc1ccc(-c2nc(CN3CCCC(Cn4cncn4)C3)no2)cc1 (configuration not stated) | 27.5
CCCc1nc(C)c(C(=O)NCCN2CCN(CC)CC2)s1 | -5.5
CN(C)c1cc(C(=O)N2CCCN(Cc3cscn3)CC2)ccn1 | -8.49
CCC(O)CN1CCN(C(=O)c2sccc2OC)CC1 (configuration not stated) | 0.647
O=S(=O)(NCCN1CCCCC1Cn1cncn1)c1ccccc1 (configuration not stated) | -3.24
CCN(Cc1cccc2c1OCO2)C(=O)C(C)c1cccnc1 (configuration not stated) | 1.7
Cc1cc(CN(C)C(=O)NCC(C)N2CCc3ccccc32)no1 (configuration not stated) | -2.66
CN(Cc1cccc(F)c1)C(=O)CN1CCOC(Cn2cccn2)C1 (configuration not stated) | -2.5
CC(=O)N1CCN(C(=O)CN2CCc3c(ncn3C3CC3)C2)CC1 | 6.66
OCC1CCCN1c1cc(NCc2ccc(Cl)s2)ncn1 (configuration not stated) | -2.35
CC(=O)N(Cc1noc(C)n1)C1CCN(Cc2ccon2)C1 (configuration not stated) | 37.1
O=C(NCc1csc(Br)c1)c1ccncc1 | -16.8
CC(C)c1nnc(NC(=O)NCc2ccnc(N(C)C)c2)s1 | -19.1
Cc1cnn(C2CCCN(C(=O)Cc3cn4ccccc4n3)C2)c1 (configuration not stated) | -12.4
Cn1ccc(CN2CCC(CO)CC2)cc1=O | -9.02
Cc1cn2nc(N3CCCC3Cn3nc(C)cc3C)sc2n1 (configuration not stated) | -7.66
Cc1nn(C)c(C)c1C1CCCN1Cc1nc(C)c2ccccc2n1 (configuration not stated) | 5.7
O=C(CN1CCc2c(ncn2C2CC2)C1)NC1CC1 | -23.8
CCc1n[nH]c(C2CN(C(=O)CCc3cccs3)CCO2)n1 (configuration not stated) | 13.9
Cc1ncc(CN(C)CC2CCCN2c2cccnn2)s1 (configuration not stated) | 8.83
c1cnnc(N2CCCC2CNCc2cnc(N3CCCC3)nc2)c1 (configuration not stated) | -7.83
c1ccc(Cn2cc(CNC3CCc4ncnn4C3)cn2)cc1 (configuration not stated) | -7.61
O=C(c1csc(Br)c1)N1CCCC(n2ccnc2)C1 (configuration not stated) | 12.4

Compound | cytotoxicity at 70.5 h [%]
Cc1csc(C2CCCCN2C(=O)CN(C)Cc2ccccc2)n1 (configuration not stated) | -8.36
COc1ccc(CN2CCCC(Cn3nc(C)nc3C)C2)cc1F (configuration not stated) | -8.47
Cc1oc(C)c(C(=O)NCc2cccc(NC(=O)CN(C)C)c2)c1C | -8.3
CC(=O)N(Cc1noc(C)n1)C1CCN(Cc2ccccc2C#N)C1 (configuration not stated) | -5.45
O=C(c1ccccc1OCC1CC1)N1CCCC(n2ccnc2)C1 (configuration not stated) | -9.12
Cc1ccc(N2CCCC(NCc3ccc(C)o3)C2)nn1 (configuration not stated) | -7.71
CCCn1[nH]cc/c1=N\C(=O)CN1CCc2c(nc(C(C)C)n2C)C1 | 18
Cc1cccc(-n2cc(C(=O)N3CCCC(n4ccnc4)C3)nn2)c1 (configuration not stated) | 15.2
CC(C)c1nc2c(n1C)CCN(CC(=O)Nc1ccc(Cl)cn1)C2 | -14.9
COc1ccc(CC(=O)N(C)Cc2nnc3ccccn23)cc1 | -17.4
Cc1cccc(-n2cc(C(=O)N3CCCC(n4cccn4)C3)nn2)c1 (configuration not stated) | -13.8
Cc1cc(CN2CCN(C(=O)c3sccc3C3CC3)CC2)on1 | -13.6
O=C1NCCN1C1CCN(CCc2cccs2)CC1 | -11.4
CCN(Cc1nc2c(cnn2C)c(=O)[nH]1)Cc1cccs1 | -7.33
CCc1ccc(OCC(O)CN2CCN(S(C)(=O)=O)CC2)cc1 (configuration not stated) | -5.82
CC(Cn1cccn1)NC(=O)CCc1ccc(S(N)(=O)=O)cc1 (configuration not stated) | -15.1
COc1ccc(C(=O)NCCc2nnc3ccccn23)c(OC)c1 | 8
Cc1cnn(CC2CCCN2C(=O)c2cc3ccccc3[nH]2)c1 (configuration not stated) | 8.1
O=C(CCc1cccs1)N1CCCCC1Cn1cccn1 (configuration not stated) | -5.08
COc1ccc(CNC(=O)NC(C)Cn2cccn2)cc1O (configuration not stated) | -16.1
CCc1n[nH]c(C2CN(C(=O)c3csnn3)CCO2)n1 (configuration not stated) | -18.6
CCN1CCN(C2CCN(Cc3ncc(C(C)(C)C)o3)CC2)C1=O | -8.55
COc1c(CNCC(O)c2cccc(F)c2)c(C(C)C)nn1C (configuration not stated) | 2.55
CC(=O)N(Cc1noc(C)n1)C1CCN(Cc2cc(C)on2)C1 (configuration not stated) | -2.83
